Experimental data taken from US4925835A, “Aziridinyl putrescine containing compositions and their uses in treating prostate cancer” (priority 1987, dated 1990).
Where two headings read alike, the source gives them in different places.

Assays:
[1] = tested on: PC-3 cells; assay: Polyamine assays: intracellular polyamine levels by HPLC; type: cell-based, human; settings: PC-3, ±1 mM DFMO 48 h, then ±25 μM AZP 1 h
Procedure: One h later the medium was aspirated and the cells were rinsed with cold HBSS. Three plates were treated with dilute trypsin to release the cells from the plate and provide a single cell suspension. The viability of the cells and the number of cells per plate were determined by trypan blue exclusion and counting with the aid of a hemocytometer. […] The other three plates were extracted with 0.4N perchloric acid and the polyamines were measured by fluorescence following postcolumn derivatization with o-phthalaldehyde following separation by the reverse phase ion-pair high performance liquid chromatography procedure of Wagner et al., J. Chomatogr., 227: 349-368, 1982.
In Table 2 are listed the values for the triplicate assays of the concentrations of polyamine observed in nontreated cells, cells treated with 1-(4-aminobutyl) aziridine for 1 h, cells pretreated for 48 h with 1 mM difluoromethylornithine and then incubated in drug free medium for 1 h, or cells pretreated for 48 h with difluoromethylornithine, rinsed free of difluoromethylornithine, and then incubated with 25 μM 1-(4-aminobutyl)aziridine for 1 h. All groups had cell viabilities greater than 95% and cell numbers were 4.9±0.6 (SE), 4.9±0.7, 4.8±0.4, and 4.6±0.4×10^6 cells for the control, 1-(4-aminobutyl) aziridine, difluoromethylornithine, and difluoromethylornithine+1-(4-aminobutyl) aziridine groups, respectively. The apparent amount of 1-(4-aminobutyl) aziridine in the difluoromethylornithine-treated cells was 3.7 times that of the 1-(4-aminobutyl) aziridine-only-treated cells. No N^8 -acetylspermidine, acetylputrescine, or cadaverine was detected in any group. A peak was detected at a wavelength of 254 nm in the difluoromethylornithine treatment groups that corresponds to the retention time of decarboxylated S-adenosylmethionine.
^a PC-3 cells were incubated with or without 1 mM DFMO for 48 h. Cell
were then rinsed free of DFMO and incubated for 1 h with 25 μM AZP. Th
cells were washed free of AZP by three rinses of HBSS. With one set of
triplicate plates, the cells were resuspended and counted by hemocytomete
and viability was determined by trypan dye exclusion (viability > 95%).
Another set triplicate plates was extracted with icecold perchloric acid
and filtered and the polyamine concentrations were determined by HPLC.
^b Mean ± SE for a triplicate assay. Histamine is included as a […]

[2] = tested on: human prostate cancer cell line PC-3; assay: cells; type: cell-based
Procedure: Aziridinyl putrescine 1-(4-aminobutyl) aziridine was synthesized using the method as described by Piper, et al., J. Med. Chem. 12: 236-243 (1968). Cells of the human prostate cancer cell line PC-3 were used.
10^3 PC-3 human cells were plated in RPMI 1640 with 10% FCS/3 ml in 60 mm^2 petri dishes. The cell plates were incubated either with, or without difluoromethylornithine for 48 hours. This was followed by aspiration, and replacement with a medium containing either no additives, 50 uM 1-(4-aminobutyl) aziridine, 1 mM putrescine, or both 50 uM 1-(4-aminobutyl) aziridine and 1 mM putrescine. The media were aspirated after 1 hour, and replaced with a drug free medium. Incubation continued for 5 days.
*Represents mean number of colonies ± one standard deviation of
triplicate assay. Number in parenthesis is percent of control.

[3] = tested on: normal rat prostate; assay: In vivo antiprostatic activity, prostate wet weight; settings: Copenhagen rats, 14 days; AZP 2 mg/kg/day by intraperitoneal infusion mini-pump, DFMO similar amount orally
Procedure: 1-(4-aminobutyl) aziridine, difluoromethylornithine, and a combination of 1-(4-aminobutyl) aziridine and difluoromethylornithine were tested in vivo for antiprostatic activity using Copenhagen rats. The normal rat prostate is often used as a model or control for drugs which are suspected of having antiprostatic cancer activity. Sloan, et al., Cancer Chemother. Rep. 59: 185-194 (1975). 1-(4-aminobutyl) aziridine, difluoromethylornithine, and a combination of 1-(4-aminobutyl) aziridine and difluoromethylornithine were administered to twenty-eight (28) Copenhagen rats for 14 days. 1-(4-aminobutyl) aziridine was administered by an infusion mini-pump implanted intraperitoneally.
Difluoromethylornithine was administered orally. The 1-(4-aminobutyl) aziridine was delivered at a rate of 2 mg/kg/day. A similar amount of difluoromethylornithine was administered orally on a daily basis. Before loading the infusion pump, the pH of 1-(4-aminobutyl) aziridine was adjusted to 7.5 with hydrochloric acid. The pump rate was 0.5 u./hr.
The prostates of the twenty-eight (28) subjects were removed, freed of fat and weighed to the nearest milligram.

[4] = tested on: PC-3 human prostatic carcinoma cell line; assay: cells; type: cell-based
Procedure: FIG. 3. Effect of AZP on the growth of PC-3 cells with or without DFMO pretreatment. PC-3 cells (3×10^4) were plated in 60-mm^2 Petri dish in RPMI 1640-10% FCS and allowed to attach overnight. The following day the medium was aspirated and replaced with RPMI 1640, 10% FCS, 100 μM aminoguanidine with or without 1 mm DFMO. Forty-eight h later the medium was aspirated, the dishes were rinsed once with HBSS, and the cells were incubated with RPMI 1640-10% FCS-100 μM aminoguanidine with or without 25 μM AZP for 1 h. Following the 1-h incubation the medium was aspirated, the plates were rinsed twice with HBSS, and the incubation was continued with fresh RPMI 1640-10% FCS-100 μM aminoguanidine. At the indicated times following initial plating the cells were lifted from the plate by trypsinization and were examined for their ability to exclude trypan blue. Total cell counts were obtained with the aid of a hemocytometer, and the completeness of the removal of the cells from the dish was verified by the examination of each dish with the inverted microscope. , control; Δ, DFMO; .circle., AZP; .quadrature., DFMO+AZP. Points, means; bars, SE.
FIG. 4. Dose-effect relationship of AZP on the growth on PC-3 prostatic cancer cells. PC-3 cells (3×10^4) were plated in RPMI 1640-10% FCS in 60-mm^2 Petri dishes and allowed to attach overnight. The following day the medium was aspirated and replaced with RPMI 1640-10% FCS-100 μM aminoguanidine with or without 1 mm DFMO. Forty-eight h later the medium was aspirated, and the cells were rinsed once with HBSS and replaced with RPMI 1640-10% FCS-100 μM aminoguanidine with or without the indicated μM concentrations of AZP. After a 1-h incubation the medium was aspirated, the cells were rinsed twice with HBSS, and the incubation was continued with fresh RPMI 1640-10% FCS-100 μM aminoguanidine. Eight days following plating the cells were lifted from the plates by trypsinization and were counted with the aid of a hemocytometer and expressed as a percentage of control (100% without DFMO, 212±31×10^4; 100% with DFMO pretreatment, 219±25× 10^4 cells, respectively). , DFMO pretreated; .circle., without DFMO.
Assays of cell growth were performed by plating 3×10^4 PC-3 cells in RPMI 1640 medium with 10% FCS and allowing them to attach overnight. The following morning the medium was replaced with incubation medium consisting of RPMI 1640, 10% FCS, 100 μM aminoguanidine, 100 units/ml of penicillin, 100 μg/ml of streptomycin, and 2 mM glutamine, with or without 1 mM difluoromethylornithine. Two days later the medium was aspirated and replaced with or without 1-(4-aminobutyl) aziridine at the designated concentration usually for 1 h or for the designated length of time. Following the 1-h incubation, the medium of all groups was aspirated and the dishes were rinsed with HBSS and replaced with fresh incubation medium. Either daily or 8 days following plating, the Petri dishes were rinsed with HBSS and the cells were lifted from the plate by trypsinization. The dishes were examined for completeness of cell removal by examination with an inverted microscope. The cells were counted with a Zeiss microscope using a hemocytometer. Tumor cell population doubling time was determined by ploting the natural logarithm (ln) of the number of cells versus the days following plating. The slope of this line was determined using the Memorial Sloan-Kettering Cancer Center Clin computer system statistical analysis package. Doubling time (DT) was determined as ln 2/slope=DT. Statistical differences in cell number between groups were determined by Student's t statistic with the aid of the Memorial Sloan-Kettering Cancer Center Clin computer using the statistics program.
^a Thirty thousand PC3 cells were plated in 60mm^2 Petri dishes i
RPMI 164010% FCS. The next day the medium was aspirated and replaced with
RPMI 164010% FCS medium with 100 μM aminoguanidine with or without 1 m
DFMO. Fortyeight h later the medium was aspirated. […]

[5] = tested on: uptake of [14C]putrescine into PC-3 cells; type: cell-based, human
Procedure: FIG. 1. Lineweaver-Burk plot of the uptake of [^14 C]putrescine by DFMO-pretreated cells. The ordinate is expressed as 1/pmol/15 min. The abscissa is expressed as 1 μM concentrations containing from 16 to 1.0 μM [^14 C]putrescine.
Fifty thousand PC-3 cells were plated in 12-well plates and 18 h later the incubation medium was removed and replaced with 1 ml or RPMI 1640 medium containing 25 mM 4-(2-hydroxyethyl)-1-piperazineethansulfonic acid buffer, 100 μM aminoguanidine, and 10% FCS. Forty-eight h later the medium was replaced with medium which contained [^14 C]putrescine in concentrations ranging from 16 to 1.0 μM with or without 5 1M 1-(4-aminobutyl) aziridine. Following incubation at 37° C. for 15 min the [^14 C]putrescine-containing medium was aspirated, and the cells were rinsed rapidly 4 times with HBSS. Following the last rinse, 1.0 ml of a solution of 0.1N NaOH was added and after a 2-h incubation at room temperature a 0.2-ml aliquot was added to 1 ml of 2% glacial acidic acid and 10 ml of Scintiverse 1 scintillation cocktail and the radioactive disintegrations were determined with a Packard Tri-Carb 300 scintillation spectrophotometer. Counting efficiency for ^14 C was 80%. Kinetic analysis of uptake was performed by graphic methods as described by Dixon and Webb, Enzymes, p. 322, New York Academic Press (1959).
In FIG. 1 a Lineweaver-Burk plot of the uptake of [^14 C]-putrescine into the PC-3 cells is presented and was used to determine the Km (intercept x axis) and Vmax (intercept y axis) for putrescine.

[6] = PC-3, 48 h with or without DFMO, then 1 h with 50 uM AZP and/or 1 mM putrescine, 5 days drug free

| SMILES | Cell numbers at end of treatment ([1]; SE) | Polyamine levels: Hist (histamine, nonpolyamine control) ([1]; mean ± SE) [pmol/10^6] | Polyamine levels: NaSpm (N-acetylspermine) ([1]; mean ± SE) [pmol/10^6] | Polyamine levels: PUT (putrescine) ([1]; mean ± SE) [pmol/10^6] | Polyamine levels: Spd (spermidine) ([1]; mean ± SE) [pmol/10^6] | Polyamine levels: Spm (spermine) ([1]; mean ± SE) [pmol/10^6] | Inhibition of proliferation of human prostate cancer cells in culture ([2]; AZP at 50 uM, from Table 1) | Clonogenic survivors (mean number of colonies ± one standard deviation) [2, 6] [colonies] | Clonogenic survivors, percent of control [2, 6] [%] | Dorsal Lateral Prostate, milligram wet weight (SEM) [3] [milligram] | Ventral Prostate, milligram wet weight (SEM) [3] [milligram] | Cells per dish on day 8 following plating ([4]; PC-3, 3×10^4 plated, ±1 mM DFMO 48 h, ±25 μM AZP 1 h, mean±SD of triplicates) | Doubling time ([4]; PC-3, 25 μM AZP 1 h or 1 mM DFMO 48 h, mean±SE) [days] | Km [5] [µM] | Vmax of putrescine uptake [5] [pmol/15 min/10^5 cells] | Vmax of putrescine uptake ([5]; PC-3 cells, without difluoromethylornithine pretreatment) [pmol/15 min/10^5 cells] | Cell no. [4] | Growth-inhibitory activity toward PC-3 cells (in words) [4] | Cell no. as a percentage of control ([4]; pc-3 cells, 11520 min) [%] |
| --- | --- | --- | --- | --- | --- | --- | --- | --- | --- | --- | --- | --- | --- | --- | --- | --- | --- | --- | --- |
| NCCCC(N)(C(=O)O)C(F)F (stereo not shown) [DFMO, difluoromethylornithine, reference compound] | 4.8±0.4 ×10^6 cells | 98 ± 26 | 130 ± 10 | 192 ± 34 | 171 ± 66 | 3046 ± 554 | little effect | 549 ± 57 | 94 | 445 ± 32 | 377 ± 16 | 340±54 ×10^4 cells per dish | 1.14 ± 0.05 |  |  |  |  |  |  |
| NCCCCN [PUT, 1,4-butanediamine, reference compound] |  |  |  |  |  |  |  |  |  |  |  |  |  | 2.5 | 190 | 40 | 438 ± 16 × 10^-4 | no growth-inhibitory activity | 106 |
